Assay results: BindingDB's records for doi:10.1021/jm00126a018 (Amherst College, 1989)

Molecular target: Chymotrypsinogen A (Bos taurus) (UniProt P00766)
Experiment: Inhibition of chymotrypsin-catalyzed hydrolysis of BzTyr p-nitroanilide by compound at pH 5

Ki: > 8 mM
SMILES: CC(=O)N[C@@H](C)C(=O)NN=CCNC(=O)c1ccccc1
